In BindingDB's records for doi:10.1016/j.bmc.2010.06.094 (Shahid Beheshti University of Medical Sciences, 2010):

Key:
[1] = molecular target: Prostaglandin G/H synthase 1 / COX-1 (Ovis aries) (UniProt P05979); test: Inhibition of sheep COX1
[2] = molecular target: Prostaglandin G/H synthase 2 / COX-2 (Ovis aries) (UniProt P79208); test: Inhibition of sheep COX2

Row | IC50 [1] | IC50 [2] | SMILES
1 | 21.8 µM | 85 nM | CC(=O)Nc1ccc(-c2cc(C(=O)O)c3cc(C(=O)c4ccccc4)ccc3n2)cc1 [2-(4-acetamido)phenyl)-6-benzoyl-quinoline-4-carboxylic acid]
2 | 65.5 µM | 57 nM | [N-]=[N+]=Nc1ccc(-c2cc(C(=O)O)c3cccc(C(=O)c4ccccc4)c3n2)cc1 [2-(4-azido)phenyl)-8-benzoyl-quinoline-4-carboxylic acid]

The remaining lines, values behind:

Row | SMILES | IC50 [1] | IC50 [2]
3 | CS(=O)(=O)c1ccc(-c2cc(C(=O)O)c3cccc(C(=O)c4ccccc4)c3n2)cc1 [8-benzoyl-2-(4-(methylsulfonyl)phenyl)quinoline-4-carboxylic acid] | 15.9 µM | 69 nM
4 | [N-]=[N+]=Nc1ccc(-c2cc(C(=O)O)c3cc(C(=O)c4ccccc4)ccc3n2)cc1 [2-(4-azido)phenyl)-6-benzoyl-quinoline-4-carboxylic acid] | > 100 µM | 77 nM
5 | CS(=O)(=O)c1ccc(-c2cc(C(=O)O)c3ccccc3n2)cc1 [2-(4-(methylsulfonyl)phenyl)-quinoline-4-carboxylic acid] | 13.4 µM | –
6 | CS(=O)(=O)c1ccc(-c2cc(C(=O)O)c3cc(C(=O)c4ccccc4)ccc3n2)cc1 [6-benzoyl-2-(4-(methylsulfonyl)phenyl)quinoline-4-carboxylic acid] | 24.4 µM | 77 nM
7 | CC(=O)Nc1ccc(-c2cc(C(=O)O)c3cccc(C(=O)c4ccccc4)c3n2)cc1 [2-(4-acetamido)phenyl)-8-benzoyl-quinoline-4-carboxylic acid] | 9.2 µM | 80 nM
